These results are taken from patent US7618968B2, “Aryl triazines as LPAAT-β inhibitors and uses thereof” (Cell Therapeutics, Inc., priority 2001, dated 2009).

pIC50: −log10 of the molar value.

A word on the pIC50: it is −log10 of the IC50, conventionally taken in molar units. The low end stands for a large IC50, the high end for a small IC50.

The target of this assay is T1, LPAAT-β (Homo sapiens, UniProt O15120).
T1 construct: the full-length human LPAAT-β cDNA was amplified by PCR; poly-histidine tag (from pFastBac HTc vector) (N); made in house; host or cells: Sf9 insect cells (baculovirus); membrane fraction used
T1 sequence (O15120 24-278): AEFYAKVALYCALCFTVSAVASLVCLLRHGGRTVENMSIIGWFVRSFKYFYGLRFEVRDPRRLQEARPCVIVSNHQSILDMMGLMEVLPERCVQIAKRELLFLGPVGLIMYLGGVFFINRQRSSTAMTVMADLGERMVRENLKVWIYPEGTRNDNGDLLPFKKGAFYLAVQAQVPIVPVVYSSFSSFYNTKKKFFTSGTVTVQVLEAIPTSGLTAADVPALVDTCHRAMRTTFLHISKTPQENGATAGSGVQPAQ
Put plainly: LPAAT-β cell-free assay (colorimetric primary screen, radiometric/fluorescent TLC secondary assay). Format: biochemical. The following applies: Sf9 cell membrane overexpressing LPAAT-β. The text has this: A. Production of Recombinant LPAAT-β for Assays
For the construction of Baculovirus expression vectors, the full-length human LPAAT-β cDNA was amplified by PCR from the DNA template pCE9.LPAAT-β (West et al., DNA Cell Biol. 16:691-701 (1997)) using the primers 5′-[…] […] […] […]-3′ (olpb1F; SEQ ID NO:1) and 5′-[…] […] […]-3′ (olpb1R; SEQ ID NO:2). The ˜870 bp fragment generated was reamplified by PCR using the primers 5′[…] […] […] […] ATC-3′ (olpb2F; SEQ ID NO:3) and 5′-[…] […] […]-3′ (olpb1R; SEQ ID NO:2). The ˜890 bp fragment generated was then cleaved with Sal I and Xba I for insertion into pFastBac™ HTc vector (Life Technologies, Gaithersberg, Md.) between the Sal I and Xba I sites for the generation of the plasmid pFB.LPAAT-β. This plasmid was then transformed into E. coli DH10Bac™ (Life Technologies, Gaithersberg, Md.) for the generation of recombinant Bacmid DNA for transfection in HighFive (Invitrogen, San Diego, Calif.) or SF9 insect cells for the production of recombinant Baculovirus stocks using the protocol described in the Bac-to-Bac® Baculovirus Expression System (Life Technologies, Gaithersberg, Md.), a eukaryotic expression system for generating recombinant baculovirus through site-specific transposition in E. coli. Viral stocks harvested from the transfected cells can then be used to infect fresh insect cells for the subsequence expression of LPAAT-β fusion protein with a poly-histidine tag and a myc-epitope near its N-terminus. The membrane fraction from these Sf9 cells would be the source of LPAAT enzyme.
B. Preparation of Cell Membranes from Sf9 Cells
For the preparation of membranes from Sf9 Cells, all steps are performed on ice or at 4° C. Sf9 cell pellets (˜10^8 cells) were thawed and resuspended in 1-2 ml of buffer A (20 mM Hepes, pH 7.5, 1 mM DTT, 1 mM EDTA, 20% w/v glycerol, 1 mM Benzamidine, 1 μg/ml soybean trypsin inhibitor (SBTI), 1 μg/ml pepstatin A) w/o DTT but with 1 mM Pefabloc. The cells were lysed by sonication using a Branson Sonifier at output=2, duty cycle=2, 10 pulses each at 10s. with the tip of small sonicator probe submerged but not touching the walls. DTT was then added to 1 mM from a 1 M stock. The samples were centrifuged at 1500 rpm for 5 min. The low speed supernatant was saved and centrifuged (TLA 100.3 rotor, polycarbonate tubes, 2 ml/tube or 1.5 ml/tube minimum) at 100000×g for 1 hr. The high speed pellet was resuspend in Buffer A with a probe sonicator (10 pulses @ output #2 and duty cycle 20%) as a source of LPAAT enzyme.
C. Assay of LPAAT-β Activity
LPAAT-β catalyzes the transfer of an acyl group from a donor such as acyl-CoA to LPA. The transfer of the acyl group from acyl-CoA to LPA leads to the release of free CoA, which can be reacted with the thiol reagent, 5,5′-dithiobis(2-nitrobenzoic acid) (DTNB). The reaction between DTNB and the free sulfhydryl group from CoA generates a yellow-colored product, 3-carboxylato-4-nitrothiophenolate (CNP), that absorbs at 413 nm. LPAAT-β derived from Sf9 cell membrane overexpressing LPAAT-β were resuspended in HEPES saline buffer (20 mM HEPES pH 7.5, 150 mM NaCl), 1 mg/ml BSA and 72 μl aliquots were distributed into 96-well microtiter plates. 8 μl of compound of interest at 200 μM dissolved in 100% DMSO was added into each well. 20 μl of 1 mM 18:1-CoA and 1 mM sn-1-18:1 lysoPA was then added to each well to initiate the reaction and allowed to run at room temperature for 25 min. 100 μl of 1 mM DTNB in 100% ethanol was then added to each well to quench the reaction and for color development. The absorbance at 405 nm, measured using a spectrophotometer plate reader, is proportional to the activity of LPAAT-β in the sample. This colorimetric assay was used for the high throughput screening of LPAAT inhibitors.
As for `COc1ccc(Cl)cc1-c1nc(N)nc(Nc2ccc(Br)cc2)n1` [Example 10, N-2-(4-Bromophenyl)-6-(5-chloro-2-methoxyphenyl)-[1,3,5]triazine-2,4-diamine], the negative logarithm of the IC50 (pIC50) was 7.12.

In turn, `Cc1ccc(Cl)c(-c2nc(N)nc(Nc3ccc(Cl)cc3)n2)c1` [Example 83, 6-(2-chloro-5-methyl-phenyl)-N-(4-chloro-phenyl)-[1,3,5]triazine-2,4-diamine] showed a pIC50 of 6.74.

Compound `Cc1ccc(Nc2nc(N)nc(-c3cc(Cl)ccc3Cl)n2)cc1` [Example 49, 6-(2,5-Dichloro-phenyl)-N-p-tolyl-[1,3,5]triazine-2,4-diamine] showed a pIC50 of 6.68.

In turn, `Cc1ccc(Cl)cc1-c1nc(N)nc(Nc2ccc(N=[N+]=[N-])cc2)n1` [Example 36, 6-(5-Chloro-2-methyl-phenyl)-N-(4-azido-phenyl)-amino-[1,3,5]triazine-2,4-diamine] had a negative logarithm of the IC50 (pIC50) of 6.06.

The compound `CCOc1ccc(Cl)cc1-c1nc(N)nc(Nc2ccc(C(O)CO)cc2)n1` (centres unmarked) [Example 69] gave a negative-log IC50 (pIC50) of 5.59.

In turn, `CCc1ccc(Nc2nc(N)nc(-c3cc(Cl)ccc3C)n2)cc1` [Example 38, 6-(5-Chloro-2-methyl-phenyl)-N-(4-ethyl-phenyl)-[1,3,5]triazine-2,4-diamine] gave a pIC50 of 6.00.

Take `Cc1ccc(Cl)cc1-c1nc(Cl)nc(Nc2ccc3cn[nH]c3c2)n1` [Example 26, [4-Chloro-6-(5-chloro-2-methyl-phenyl)-[1,3,5]triazin-2-yl]-(1H-indazol-6-yl)-amine]: the pIC50 is 8.40.

With `CCOc1ccc(Cl)cc1-c1nc(N)nc(Nc2ccc3cn[nH]c3c2)n1` [Example 51, 6-(5-Chloro-2-ethoxy-phenyl)-N-(1H-indazol-6-yl)-[1,3,5]triazine-2,4-diamine], the pIC50 is 6.22.

For the compound `Cc1ccc(Br)c(-c2nc(N)nc(Nc3ccc(Cl)cc3)n2)c1` [Example 86, 6-(2-bromo-5-methyl-phenyl)-N-(4-chloro-phenyl)-[1,3,5]triazine-2,4-diamine], the pIC50 was 6.35.

Turning to `CC(C)Oc1ccc(Cl)cc1-c1nc(N)nc(Nc2ccc(Cl)cc2)n1` [Example 52, 6-(5-Chloro-2-isopropoxy-phenyl)-N-(4-chloro-phenyl)-[1,3,5]triazine-2,4-diamine], the negative logarithm of the IC50 (pIC50) is 6.21.

`CCc1nc(Nc2ccc(Br)cc2)nc(-c2cc(Cl)ccc2C)n1` [Example 24] gave a pIC50 of 6.15.

In turn, `Cc1ccc(Cl)cc1-c1nc(N)nc(Nc2ccc(COC(=O)CC[C@H](N)C(=O)O)cc2)n1` [Example 63, (S)-2-Amino-pentanedioic acid 5-{4-[4-amino-6-(5-chloro-2-methyl-phenyl)-[1,3,5]triazin-2-ylamino]-benzyl}ester] had a negative logarithm of the IC50 (pIC50) of 5.51.

In turn, `CCOc1ccc(Cl)cc1-c1nc(N)nc(Nc2ccc(Cl)c(C(=O)NC)c2)n1` [Example 62, 5-[4-Amino-6-(5-chloro-2-ethoxyphenyl)-[1,3,5]triazin-2-ylamino]-2-chloro-N-methylbenzamide] showed a pIC50 of 6.00.

`COc1ccc(Cl)cc1-c1nc(N)nc(Nc2ccc3c(c2)OCO3)n1` [Example 5, N-Benzo[1,3]dioxol-5-yl-6-(5-chloro-2-methoxyphenyl)-[1,3,5]triazine-2,4-diamine] gave a pIC50 of 6.55.

As to `COCCOc1ccc(Cl)cc1-c1nc(N)nc(Nc2ccc(Cl)cc2)n1` [Example 65, 6-[5-Chloro-2-(2-methoxy-ethoxy)-phenyl]-N-(4-chloro-phenyl) [1,3,5]triazine-2,4-diamine], the pIC50 is 6.22.

`CNc1nc(Nc2ccc(CO)cc2)nc(-c2cc(Cl)ccc2C)n1` [Example 74, {4-[4-(5-Chloro-2-methyl-phenyl)-6-methylamino-[1,3,5]-triazin-2-ylamino]-phenyl}-methanol] gave a pIC50 of 6.17.

As to `Cc1ccc(C)c(-c2nc(N)nc(Nc3ccc(Cl)cc3)n2)c1` [Example 14, N-(4-chlorophenyl)-6-(2,5-dimethylphenyl)-[1,3,5]triazine-2,4-diamine], the pIC50 is 6.60.

`Cc1ccc(Cl)cc1-c1nc(Cl)nc(Nc2ccc([N+](=O)[O-])cc2)n1` [Example 30, [6-(5-Chloro-2-methyl-phenyl)-2-chloro-3-yl-[1,3,5]-triazin-4-yl]-(4-nitro-phenyl)-amine] gave a negative logarithm of the IC50 (pIC50) of 8.00.

`Cc1ccc(Cl)cc1-c1nc(N)nc(Nc2ccc3c(c2)CCC3)n1` [Example 37, 6-(5-Chloro-2-methyl-phenyl)-N-indan-5-yl-[1,3,5]triazine-2,4-diamine] showed a pIC50 of 6.23.

Compound `Cc1ccc(Cl)cc1-c1nc(N)nc(Nc2ccc(C=O)cc2)n1` [Example 87, 4-[4-Amino-6-(5-chloro-2-methyl-phenyl)-[1,3,5]triazin-2-ylamino]-benzaldehyde] showed a negative logarithm of the IC50 (pIC50) of 6.96.

In turn, `N#Cc1ccc(Nc2nc(N)nc(-c3cc(Cl)ccc3Cl)n2)cc1` [Example 89, 4-[4-Amino-6-(2,5-dichlorophenyl)-[1,3,5]triazin-2-ylamino]-benzonitrile] gave a pIC50 of 7.00.

With `Cc1ccc(Cl)cc1-c1nc(Nc2ccc(Cl)cc2)nc(N2CCCCC2)n1` [Example 31], the pIC50 was 5.22.

With `Nc1nc(Nc2cccc(Cl)c2)nc(-c2cc(Cl)ccc2Cl)n1` [Example 90, N-(3-chlorophenyl)-6-(2,5-dichlorophenyl)-[1,3,5]triazine-2,4-diamine], the negative-log IC50 (pIC50) was 5.32.
